{"source": "patent US20080021056A1", "about": "“Fused, Tricyclic Sulfonamide Inhibitors of Gamma Secretase” (priority 2006, published 2008)", "key": {"[1]": {"target": "T1, gamma secretase (Mus musculus, UniProt P49769)", "T1 construct": "host or cells: brain of PDAPP transgenic mice (in vivo)", "details": "PDAPP mice, acute inhibition, in-vivo; cited from earlier work"}, "[2]": {"target": "T2, gamma-secretase (Homo sapiens, UniProt P49768)", "T2 construct": "partially purified extract of IMR-32 cell membranes as the gamma-secretase enzyme preparation; endogenous in cells; host or cells: IMR-32 cell membranes (partially purified extract)", "assay": "Gamma-secretase APP enzyme assay", "format": "biochemical", "details": "cleavage of MBP-C125 Swe substrate at the Aβ40 site, partially purified extract of IMR-32 cell membranes, ELISA", "method_in_brief": "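IMR-32 membrane extract (25 Units) was preincubated with inhibitor for 30 min at 37 °C, then MBP-C125swe substrate (0.05 mg/ml) was added for 2 h at 37 °C in Hepes/NaCl with BigCHAPS and brain lipid (0.53 mg/ml). Reaction stopped with 0.1% SDS. Aβ40 neo-epitope product captured overnight at 4 °C and quantified by sandwich ELISA against a six-point standard curve.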"}}}
{"smiles": "C[C@H](NC(=O)Cc1cc(F)cc(F)c1)C(=O)N[C@H](C(=O)OC(C)(C)C)c1ccccc1", "note": "[DAPT]", "values": [{"measurement": "Aβ in the brain", "setting": "[1]", "value": "reduction of Aβ in the brain"}]}
{"smiles": "O=S(=O)(c1ccc(C(F)(F)F)nc1)N1c2cc(F)c(F)cc2-c2[nH]ncc2C1C1CC1", "note": "(single isomer, unassigned) [4-cyclopropyl-7,8-difluoro-5-(6-(trifluoromethyl)pyridin-3-ylsulfonyl)-4,5-dihydro-1H-pyrazolo[4,3-c]quinoline]", "values": [{"measurement": "IC50", "setting": "[2]; enantiomer A", "value": "0.1 to 100", "unit": "nM"}, {"measurement": "IC50", "setting": "[2]; enantiomer B", "value": "0.1 to 100", "unit": "nM"}]}
{"smiles": "O=S(=O)(c1ccc(C(F)(F)F)cc1)N1c2cc(F)c(F)cc2-c2[nH]ncc2C1c1cccnc1", "note": "(stereo not shown) [7,8-difluoro-4-(pyridin-3-yl)-5-(4-(trifluoromethyl)phenylsulfonyl)-4,5-dihydro-1H-pyrazolo[4,3-c]quinoline]", "values": [{"measurement": "IC50", "setting": "[2]", "value": "0.1 to 100", "unit": "nM"}]}
